From article PMC9098912, “Molecular basis for inhibiting human glucose transporters by exofacial inhibitors” (Nature Communications, 2022)
Entries after “also recorded” stand apart in the source; their conditions may differ.

What was measured:
GLUT1 = system: GLUT1; set-up: method as in Siebeneicher et al., 2016; details: SAR of Bayer compounds; ref Siebeneicher et al., 2016; cited from earlier work
[1] = biological target: T1, GLUT3exo (GLUT3 S64W and I305W) (Homo sapiens, UniProt P11169, I305W/N43T/S64W); test: biochemical; assay type: binding; details: for Figure 1e right: MST binding curve, Mean: GLUT3 dTrp mutant, log [phloretin]
T1 construct: His10 (N); made in house; host or cells: Sf9 insect cells (baculovirus)
Experimental: Following the same principle for the engineering of XylE-WW, we introduced two Trp substitutions, S64W and I305W, on the extracellular segments of TM2 and TM8 of GLUT3, respectively. This variant will be referred to as GLUT3exo hereafter (Fig. 1a). The two bulky substituents were expected to trap GLUT3 in an outward-facing conformation.
(§1) All mutants were generated by standard PCR-based strategy.
(§2) Inhibitors with serial dilutions were mixed with indicated protein. […] MST analyses were conducted on a Monolith NT. […] The MST data was analyzed by Monolith NT.115.

WT GLUT3 = biological target: T2, WT GLUT3 (Homo sapiens, UniProt P11169, N43T); test: Microscale thermophoresis (MST) binding assay; set-up: Figure 1e middle: MST binding curve, Mean / Figure 1e right: MST binding curve, Mean / Figure 2c: MST binding curve, Mean: unit not given here; details: for Figure 1e right: MST binding curve, Mean: GLUT3, log [phloretin]
T2 construct: His10 (N); made in house; host or cells: Sf9 insect cells (baculovirus)
T2 sequence (P11169 1-496 N43T): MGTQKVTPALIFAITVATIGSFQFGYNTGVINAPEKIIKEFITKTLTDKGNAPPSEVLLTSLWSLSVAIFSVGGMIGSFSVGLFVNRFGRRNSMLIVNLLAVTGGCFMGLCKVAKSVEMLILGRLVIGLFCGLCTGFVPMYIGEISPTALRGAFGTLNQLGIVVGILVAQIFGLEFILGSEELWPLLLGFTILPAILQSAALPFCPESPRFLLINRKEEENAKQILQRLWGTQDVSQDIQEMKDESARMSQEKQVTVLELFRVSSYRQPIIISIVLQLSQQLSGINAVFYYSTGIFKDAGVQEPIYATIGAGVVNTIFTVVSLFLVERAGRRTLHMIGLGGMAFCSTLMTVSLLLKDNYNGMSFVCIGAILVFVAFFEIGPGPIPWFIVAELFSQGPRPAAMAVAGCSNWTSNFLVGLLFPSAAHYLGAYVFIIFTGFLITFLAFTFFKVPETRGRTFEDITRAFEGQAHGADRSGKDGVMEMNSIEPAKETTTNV
Experimental: as §1, §2

T1 sequence (P11169 whole entry N43T/S64W/I305W): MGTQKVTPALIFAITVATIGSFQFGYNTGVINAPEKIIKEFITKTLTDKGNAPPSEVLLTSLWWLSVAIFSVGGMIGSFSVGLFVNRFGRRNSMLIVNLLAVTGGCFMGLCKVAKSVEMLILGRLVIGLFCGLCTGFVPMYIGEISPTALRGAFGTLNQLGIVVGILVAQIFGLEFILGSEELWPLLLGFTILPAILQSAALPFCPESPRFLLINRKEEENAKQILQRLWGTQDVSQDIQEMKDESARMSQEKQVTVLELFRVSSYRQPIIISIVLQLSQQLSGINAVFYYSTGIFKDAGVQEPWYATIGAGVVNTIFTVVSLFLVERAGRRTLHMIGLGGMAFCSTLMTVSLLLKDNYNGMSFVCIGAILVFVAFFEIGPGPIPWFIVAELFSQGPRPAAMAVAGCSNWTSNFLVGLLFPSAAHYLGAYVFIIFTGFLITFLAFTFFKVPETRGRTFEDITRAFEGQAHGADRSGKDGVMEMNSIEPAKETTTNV

FC(F)(F)Oc1ccccc1N1CCN(c2ncnc3c2cnn3-c2ccccc2)CC1 [cmpd 4]
GLUT1 potency (GLUT1): completely inactive

COc1ccccc1N1CCCN(c2ncnc3c2cnn3-c2ccccc2)CC1 [cmpd 42]
GLUT1 potency (GLUT1): increased the potency

O=C(CCc1ccc(O)cc1)c1c(O)cc(O)cc1O [phloretin]
Kd [1]: 15.5 ± 1.5 µM
Figure 1e right: MST binding curve, Mean ([1]; M -3.30103): 98.0572
Figure 1e right: MST binding curve, Mean ([1]; M -3.60206): 93.8274
Figure 1e right: MST binding curve, Mean ([1]; M -3.90309): 89.3364
Figure 1e right: MST binding curve, Mean ([1]; M -4.20412): 79.2593
Figure 1e right: MST binding curve, Mean ([1]; M -4.50515): 66.4804
Figure 1e right: MST binding curve, Mean ([1]; M -4.80618): 46.5416
Figure 1e right: MST binding curve, Mean ([1]; M -5.10721): 34.4965
Figure 1e right: MST binding curve, Mean ([1]; M -5.40824): 22.7361
Figure 1e right: MST binding curve, Mean ([1]; M -5.70927): 13.3872
Figure 1e right: MST binding curve, Mean ([1]; M -6.0103): 7.2146
Figure 1e right: MST binding curve, Mean ([1]; M -6.31133): 0.8877
Figure 1e right: MST binding curve, Mean ([1]; M -6.61236): 6.4707
Figure 1e right: MST binding curve, Mean ([1]; M -6.91339): 2.3532
Figure 1e right: MST binding curve, Mean ([1]; M -7.21442): 1.6413
Figure 1e right: MST binding curve, Mean ([1]; M -7.51545): 0.1149
Figure 1e right: MST binding curve, Mean ([1]; M -7.81648): 2.456
Figure 1e right: MST binding curve, Mean (WT GLUT3; M -3.30103): 99.1935
Figure 1e right: MST binding curve, Mean (WT GLUT3; M -3.60206): 89.7967
Figure 1e right: MST binding curve, Mean (WT GLUT3; M -3.90309): 81.0827
Figure 1e right: MST binding curve, Mean (WT GLUT3; M -4.20412): 66.445
Figure 1e right: MST binding curve, Mean (WT GLUT3; M -4.50515): 50.3655
Figure 1e right: MST binding curve, Mean (WT GLUT3; M -4.80618): 41.2635
Figure 1e right: MST binding curve, Mean (WT GLUT3; M -5.10721): 25.71
Figure 1e right: MST binding curve, Mean (WT GLUT3; M -5.40824): 15.7731
Figure 1e right: MST binding curve, Mean (WT GLUT3; M -5.70927): 5.8894
Figure 1e right: MST binding curve, Mean (WT GLUT3; M -6.0103): 4.0557
Figure 1e right: MST binding curve, Mean (WT GLUT3; M -6.31133): 2.0286
Figure 1e right: MST binding curve, Mean (WT GLUT3; M -6.61236): 4.4085
Figure 1e right: MST binding curve, Mean (WT GLUT3; M -6.91339): 1.9121
Figure 1e right: MST binding curve, Mean (WT GLUT3; M -7.21442): -7.4814
Figure 1e right: MST binding curve, Mean (WT GLUT3; M -7.51545): -2.4182
Figure 1e right: MST binding curve, Mean (WT GLUT3; M -7.81648): 0.9156
Kd (WT GLUT3; WT GLUT3): 26.3 ± 3.2 µM

COc1cccc(N2CCN(c3ncnc4c3cnn4-c3ccccc3)CC2)c1 [cmpd 8]
GLUT1 potency (GLUT1): decreased the GLUT1 potency

COc1ccccc1N1CCN(c2ncnc3c2cnn3-c2ccccc2OC)CC1 [compound 50]
GLUT1 potency (GLUT1): without significant loss of GLUT1 inhibition activity

COc1ccccc1N1CC2(C1)CN(c1ncnc3c1cnn3-c1ccccc1)C2 [cmpd 41]
GLUT1 potency (GLUT1): less potent

COc1ccccc1N1CCN(c2ncnc3c2cnn3-c2ccccc2C)CC1 [compound 51]
GLUT1 potency (GLUT1): without significant loss of GLUT1 inhibition activity

COc1ccccc1N1CCN(c2ncnc3c2cnn3-c2ccncc2)CC1 [compound 65]
GLUT1 potency (GLUT1): significantly reduced the potency

COc1ccccc1N1CCN(c2ncnc3c2cnn3-c2ccccn2)CC1 [cmpd 63]
GLUT1 potency (GLUT1): significantly reduced the potency

COc1ccccc1N1CCN(c2ncnc3c2cnn3-c2ccccc2)CC1C (stereo not shown) [cmpd 37]
GLUT1 potency (GLUT1): tolerated

COc1ccc(N2CCN(c3ncnc4c3cnn4-c3ccccc3)CC2)cc1 [cmpd 10]
GLUT1 potency (GLUT1): decreased the GLUT1 potency

COc1ccccc1N1CCN(c2ncnc3c2cnn3-c2ccccc2F)CC1 [cmpd 49]
GLUT1 potency (GLUT1): without significant loss of GLUT1 inhibition activity; also recorded: increased the potency

FC(F)(F)c1ccccc1N1CCN(c2ncnc3c2cnn3-c2ccccc2)CC1 [cmpd 6]
GLUT1 potency (GLUT1): completely inactive

COc1ccccc1N1CCN(c2ncnc3c2cnn3-c2cccnc2)CC1 [compound 64]
GLUT1 potency (GLUT1): significantly reduced the potency

COc1ccccc1N1CCN(c2ncnc3c2cnn3-c2ccccc2)CC1 [cmpd 3]
GLUT1 potency (GLUT1): increased the potency

COc1ccccc1N1CCN(c2ncnc3c2cnn3-c2ncccc2F)CC1 [cmpd 66]
GLUT1 potency (GLUT1): significantly reduced the potency
